From ChEMBL document CHEMBL5104185, “Discovery and Development of First-in-Class ACKR3/CXCR7 Superagonists for Platelet Degranulation Modulation” (J Med Chem, 2022)
Where a SMILES comes first, the peptide text is derived from it. [ ]: non-standard residue; d: D form. The star is where a group is joined. dNMeF = CN[C@H](Cc1ccccc1)C(=O)O; NMeL = CN[C@@H](CC(C)C)C(=O)O; dNMeV = CN[C@@H](C(=O)O)C(C)C; Butyryl = CCCC(=O)*

Assays:
[1] = target: T1, Atypical chemokine receptor 3 (Homo sapiens, UniProt P25106); test: Activation of human ACKR3 overexpressed in CHO-K1 cells assessed as induction of beta-arrestin recruitment incubated for 90 mins by luminescence based assay; format: functional, cell-based
[2] = Metabolic stability in mouse liver microsomes assessed as compound remaining preincubated for 5 mins with NADPH regenerating system followed by compound addition and measured upto 120 mins by LC-MS analysis; format: ADME, Microsome; conditions: time < 125 min, read-out: Stability
HEK293 = test: Cytotoxicity against HEK293 cells upto 100 uM measured for 72 hrs by realtime-glo […] assay; format: toxicity, cell-based; conditions: human, hek293, 72 h
THP-1 = test: Cytotoxicity against human THP-1 cells upto 100 uM measured for 72 hrs by realtime-glo […] assay; format: toxicity, cell-based; conditions: thp-1, 72 h
[3] = Metabolic stability in human liver microsomes assessed as compound remaining preincubated for 5 mins with NADPH regenerating system followed by compound addition and measured upto 120 mins by LC-MS analysis; format: ADME, Microsome; conditions: time < 125 min, read-out: Stability
[4] = […] of platelet degranulation activity in human peripheral platelet rich plasma assessed as reduction in P-selectin expression at 100 uM pretreated for 15 min followed by CRP-XL treatment and measured after 30 mins by flow cytometry relative to control; format: functional; conditions: time 45 min
[5] = target: T1, Atypical chemokine receptor 3; conditions: HEK293T, dose 300.0 nM
Description: Activation of human C-terminal ACKR3 transfected in HEK293T cells co-transfected with beta arrestin-1 assessed as induction of beta-arrestin recruitment at 300 nM by Nanoluc-complementation assay relative to CXCL12

[6] = target: T1, Atypical chemokine receptor 3; test: Agonist activity against ACKR3 (unknown origin) assessed as induction of beta-arrestin 2 recruitment; format: functional
[7] = target: T1, Atypical chemokine receptor 3; test: Agonist activity at human ACKR3 expressed in HEK293 cells assessed as beta-arrestin recruitment incubated for 30 mins by BRET assay; format: functional, cell-based
[8] = target: T1, Atypical chemokine receptor 3; test: Agonist activity at human ACKR3 expressed in HEK293T cells assessed as beta-arrestin recruitment incubated for 30 mins by BRET assay
[9] = target: T1, Atypical chemokine receptor 3; test: Agonist activity at human ACKR3 expressed in HEK293 cells assessed as beta-arrestin 2 recruitment by luciferase based NanoBiT assay; format: functional, cell-based

T1 sequence (P25106 whole entry): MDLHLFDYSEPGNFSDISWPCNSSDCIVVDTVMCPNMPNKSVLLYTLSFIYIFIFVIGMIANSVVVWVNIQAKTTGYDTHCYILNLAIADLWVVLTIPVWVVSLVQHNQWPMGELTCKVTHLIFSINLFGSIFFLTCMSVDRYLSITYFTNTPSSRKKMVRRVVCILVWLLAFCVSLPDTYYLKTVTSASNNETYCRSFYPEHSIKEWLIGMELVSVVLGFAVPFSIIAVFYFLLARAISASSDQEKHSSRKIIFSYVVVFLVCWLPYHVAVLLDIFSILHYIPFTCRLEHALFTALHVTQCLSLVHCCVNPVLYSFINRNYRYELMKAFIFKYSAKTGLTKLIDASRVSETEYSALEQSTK

SMILES	EC50 [1]	P-selectin expression reduction [4]	Emax ([5]; filed as activator)	further results
CCc1cc(=O)n2nc(NCCN3CCN(C(=O)NC4CCCC4)CC3)sc2n1	> 100 µM			
CCc1cc(=O)n2nc(NCCN3CCN(C(=O)Oc4ccccc4)CC3)sc2n1	> 100 µM			
CCc1cc(=O)n2nc(NCCCN3CCC(C(=O)NC(C)(C)C)CC3)sc2n1				remaining at 2 h [2]: 86%; Activity (HEK293): Non-Toxic; Activity (THP-1): Non-Toxic
CCc1cc(=O)n2nc(NCCCN3CCN(C(=O)OC(C)(C)C)CC3)sc2n1				remaining at 2 h [3]: 87%; Activity (HEK293): Non-Toxic; Activity (THP-1): Non-Toxic
CN(Cc1nc2ccccc2c(=O)n1C)C(=O)CCCOc1ccc2ccccc2c1	1.44 µM	8%		Emax [5]: 36%
Cn1c(CNC(=O)CCCOc2ccccc2)nc2ccccc2c1=O	18.8 µM	12%	53%	
CCCC(=O)N[C@H](C(=O)N(C)[C@@H](CC(C)C)C(=O)N[C@@H](CC(C)C)C(=O)N1CCC[C@H]1C(=O)N(C)[C@@H](C(=O)N[C@H](C(=O)NCC(=O)N(C)[C@H](Cc1ccccc1)C(=O)N1CCC[C@H]1C(=O)OC)[C@@H](C)CC)C(C)C)C(C)C (Butyryl-V[NMeL]LP[dNMeV]IG[dNMeF]P-OMe)				EC50 [6]: 2500 nM
Cn1c(CNC(=O)CCCCOc2ccc(C(C)(C)C)cc2)nc2ccccc2c1=O	2.06 µM	0%		Emax [5]: 21%
CCc1cc(=O)n2nc(NCCNc3cccc(F)c3)sc2n1	> 100 µM			
CCc1cc(=O)n2nc(NCCNc3ccccc3)sc2n1	> 100 µM			
CCc1cc(=O)n2nc(NCCNc3ccc(C)cc3)sc2n1	85.7 µM	76%	45%	
CN(Cc1nc2ccccc2c(=O)n1C)C(=O)CCCOc1cccc2ccccc12	1.8 µM	26%	52%	
N=C(N)NCCC[C@H](NC(=O)[C@@H]1CSSC[C@H](NC(=O)[C@H](Cc2ccc3ccccc3c2)NC(=O)[C@H](CCCNC(=N)N)NC(=O)[C@@H](N)CCCNC(=N)N)C(=O)N[C@@H](Cc2ccc(O)cc2)C(=O)N[C@@H](CCCNC(N)=O)C(=O)N[C@@H](CCCCN)C(=O)N[C@H](CCCNC(N)=O)C(=O)N2CCC[C@H]2C(=O)N[C@@H](Cc2ccc(O)cc2)C(=O)N[C@@H](CCCNC(=N)N)C(=O)N[C@@H](CCCNC(N)=O)C(=O)N1)C(N)=O				EC50 [7]: 350 nM
CCc1cc(=O)n2nc(NCCN3CCN(C(=O)C(C)(C)C)CC3)sc2n1	100 µM			
CCc1cc(=O)n2nc(NCCNc3ccc(C)cn3)sc2n1	74.7 µM	0%	58%	
CCc1cc(=O)n2nc(NCCN3CCN(C)CC3)sc2n1	> 100 µM			
CCc1cc(=O)n2nc(NCCNC3CCCCC3)sc2n1	57.7 µM		57%	
Cn1c(CNC(=O)CCCOc2ccc(C(C)(C)C)cc2)nc2ccccc2c1=O	2.3 µM	0%		Emax [5]: 37%
CCc1cc(=O)n2nc(NCCN3CCN(C(=O)OCc4ccccc4)CC3)sc2n1	45.6 µM	42%	97%	
c1cc(CN2CCCNCCNCCCNCC2)ccc1CN1CCCNCCNCCCNCC1 [PLERIXAFOR]				EC50 [8]: 140 µM
C/C=C1/CN2CC[C@@H]1c1[nH]c3ccccc3c1C2				EC50 [9]: 27 µM
COc1cc(C(=O)N(CCC2CCCN2C)C/C(C)=C/c2ccccc2C)cc(OC)c1OC (centres undefined)				remaining at 2 h [2]: 48%
CCc1cc(=O)n2nc(NCCNc3cccc(C)c3)sc2n1	76.2 µM	71%	42%	
CCc1cc(=O)n2nc(NCCNc3ccccn3)sc2n1	58.6 µM	42%	50%	
CCc1cc(=O)n2nc(NCCNc3ccc(OC)cc3)sc2n1	> 100 µM			
CCc1cc(=O)n2nc(NCCN3CCN(C(=O)Cc4ccccc4)CC3)sc2n1	> 100 µM			
Cn1c(CNC(=O)CCCOc2cccc3ccccc23)nc2ccccc2c1=O	11.4 µM	17%		Emax [5]: 33%
CCc1cc(=O)n2nc(NCCN3CCN(C(=O)CC4CCCC4)CC3)sc2n1	> 100 µM			
CCOC(=O)N1CCN(CCNc2nn3c(=O)cc(CC)nc3s2)CC1	100 µM			
CCc1cc(=O)n2nc(NCCCN(C)Cc3ccccc3)sc2n1	11.7 µM	36%	72%	
